Data set [1] in a line: Radiochemical stability in human serum (iTLC). The class given is in vitro ADME. As to the method: A precursor amount of 50 nmol was labeled with Lutetium-177, achieving a radiochemical yield of over 99% and a molar activity of 25.5 GBq/μmol within 15 min at 95 °C. The radiochemical purity of ^177Lu-PSMA-617 (Rt = 7.47 min) exceeded 98%, as determined by radio-HPLC and iTLC analyses (Figure 1). To assess radiolytic stability, ^177Lu-PSMA-617 was incubated in human serum at 4, 25, and 37 °C for 1, 24, 48, and 72 h. […] However, after 72 h, less than 5% and 4% of free ^177Lu was detected at 4 °C and 25 °C, respectively. […] These findings are consistent with other studies. […] The ability to maintain radiolabeling over an extended period reinforces its viability for targeted radiopharmaceutical therapy and molecular imaging in oncology.
Radiolabeling was conducted as previously described. A total of 1 GBq of non-carrier added lutetium-177 (Isotopia Molecular Imaging, Petach Tikva, Israel) was mixed with 100 μL of a sodium acetate solution (0.4 M, pH 5.5), 1.25 μL of an ascorbic acid solution (20% w/w), and 5 μL of a PSMA-617 solution (10 mM, Ontores Biotechnology Co., Ltd., Hangzhou, China). The mixture solution was subjected to heating at a temperature of 95 °C while being placed on a shaker for 15 min. The labeling efficiency was measured using instant thin-layer chromatography (iTLC) on the glass microfiber chromatography paper impregnated with a silica gel (Agilent Technologies, Santa Clara, CA, USA), where 100 mM EDTA in 100 mM ammonium acetate acts as a mobile phase as described previously. The iTLC sheets were measured using a radioactive scanner (AR-2000 radio-TLC Imaging Scanner, Bioscan, Evreux, France). The labeling rate of >90% was acceptable as performed in the in vitro and in vivo studies. Radiochemical purity was also analyzed by high-performance liquid chromatography (HPLC) with a UV detector (220 nm) and a radio detector using a Zorbax SB-C18 column (Agilent Technologies, Santa Clara, CA, USA). The flow rate was 0.8 mL/min with the gradient mobile phase going from the 80% A buffer (0.1% TFA in water) and 20% B buffer (0.1% TFA in acetonitrile) to the 40% B buffer within 20 min. A sterile 0.9% sodium chloride solution was added before injections in mice. The radiochemical stability of ^177Lu-PSMA-617 in human serum up to 96 h at 4, 25, and 37 °C was tested by iTLC.

The next data set relates to PSMA-positive tumors. Further details: method as in PMID 31399803. The settings on record: single intravenous dose of 111 MBq; cited from earlier work.

These results are taken from paper PMC12250129, “Exploring the Therapeutic Potential of ^177Lu-PSMA-617 in a Mouse Model of Prostate Cancer Bone Metastases” (International Journal of Molecular Sciences, 2025).

Turning to `O=C([O-])CN1CCN(CC(=O)[O-])CCN(CC(=O)NCC2CCC(C(=O)N[C@@H](Cc3ccc4ccccc4c3)C(=O)NCCCC[C@H](NC(=O)N[C@@H](CCC(=O)O)C(=O)O)C(=O)O)CC2)CCN(CC(=O)[O-])CC1.[177Lu+3]` (some centres unmarked) [^177Lu-PSMA-617], the free activity in data set [1] (human serum, 4 °C, after 2 h) was 1.2%; in data set [1] (human serum, 25 °C, after 2 h), “less than 1.1%”; in data set [1] (human serum, after 48 h, at 4, 25 and 37 °C) it was “no detectable free activity”. In addition, the “free 177Lu” value in data set [1] (human serum, after 72 h, 4 °C) is given as “less than 5%”; in data set [1] (human serum, after 72 h, 25 °C) it was below 4%; in data set [1] (over a 72 h observation period, 37 °C), “less than 5%”. Also, in data set [1] (human serum, up to 72 h at 37 °C), the “release of free activity” value is given as “without any release of free activity”. Also, the median survival in the data set with PSMA-positive tumors is on record as 130 days.
